Results published in patent US7235577B1 (priority 2000, dated 2007).
Like-named read-outs stand apart in the source and are kept apart here.

What was measured:
human IKCa1 channel = human IKCa1 channel (Homo sapiens, UniProt O15554); assay: cell-based; conditions: for IKCa1 inhibition compared with clotrimazole: refers to TABLE 8
Protocol: COS-7 cells, maintained in Dulbecco's modified Eagle's medium (DMEM) containing 10% heat-inactivated fetal calf serum, 4 mM L-glutamine and 1 mM Na^+ pyruvate, were transiently transfected with hlKCa1.
Electrophysiological experiments were carried out in the whole-cell configuration of the patch-clamp technique using an EPC-9 amplifier (HEKA Elektronik, Lambrecht Germany) interfaced to a computer running acquisition and analysis software (Pulse and Pulsfit; HEKA Elektronik). Pipettes were pulled from soft glass capillaries, coated with Sylgard (Dow-Corning, Midland, Mich.), and fire polished to resistances of 2.0–4.5 MΩ measured in the bath. COS-7 cells were trypsinized and plated on glass coverslips 3 h before measurement. […] To prevent activation of the native chloride channels in COS-7 cells an aspartate Ringer solution was used as an external solution (160 mM Na^+ aspartate, 4.5 mM KCl, 2 mM CaCl2, 1 mM MgCl2, 5 mM HEPES, adjusted to pH 7.4 with NaOH, with an osmolarity of 290–310 mosM). 200 ms voltage ramps from −120 mV to 40 mV every 10 s were used. The holding potential in all experiments was −80 mV. Series resistance compensation was not employed. The reduction of slope conductance at −80 mV was used to determine the Kd-value by fitting the values to the Hill equation with a Hill coefficient of unity.

CYP3A4 = CYP3A4 (Homo sapiens, UniProt P08684); assay: in vitro; conditions: human
Protocol: The test substances shown in Table 8 were evaluated for their inhibitory effect on the catalytic activity of human cytochrome P450 enzyme. Cytochrome P450 3A4 (CYP3A4) is involved in many drug-drug interactions and in many other pathways in the body including the catabolism of steroids and xenobiotics. Inhibition of this enzyme was measured in 96 well plates with 7-benzyloxy-4-trifluoro-methylcoumarin (BFC) as the substrate and cDNA-derived enzymes in microsomes prepared from baculovirus-infected insect cells.
The inhibition study consisted of the determination of inhibition by the test substance on CYP3A4 catalytic activity. […] The compounds were prepared as 10 mM stock solutions in acetonitrile. Metabolism of the model substrate was assayed by the production of 7-hydroxy-4-trifluoromethylcoumarin metabolite. The metabolite was detected by fluorescence.
Table 10 below provides a list of the name of enzymes examined, the catalog number of the microsomes used as a source of the enzyme, the concentration of the model substrate used, the amount of enzyme used, the final buffer concentration, and the positive control compound.
Assays were conducted in 96 well microtiter plates. The BFC substrate was initially prepared in acetonitrile. […] Six wells were used for one test. […] For the positive controls, 12 wells in a row were used for one test. The positive control inhibitor/enzyme combination was examined in duplicate rows. Wells 1 to 8 contained serial 1:3 dilutions of the inhibitors. The highest inhibitor concentration were as described in the table above. Wells 9 and 10 contained no inhibitor and wells 11 and 12 were blanks for background fluorescence (stop solution added before the enzyme).
After buffer, cofactors and inhibitor addition, the plates were pre-warmed to 37° C. Incubations were initiated by the addition of pre-warmed enzyme and substrate. The final cofactor concentrations were 1.3 mM NADP, 3.3 mM glucose-6-phosphate and 0.4 U/ml glucose-6-phosphate dehydrogenase. The final incubation volume was 0.2 ml. Incubations were carried out for 30 minutes [CYP3A4 (BFC)] and stopped by the addition of 0.075 ml of 80% acetonitrile-20% 0.5M Tris. Fluorescence per well was measured using a BMG FLUOstar fluorescence plate reader. The BFC metabolite 7-hydroxy-4-trifluoromethyl-coumarin was measured using an excitation wavelength of 410 nm and emission wavelength of 538 nm.

[1] = hIKCa1 in COS-7 cells, reduction of slope conductance at −80 mV, 1 μM free Ca++ in pipette

CYP3A4, sequence (P08684 whole entry): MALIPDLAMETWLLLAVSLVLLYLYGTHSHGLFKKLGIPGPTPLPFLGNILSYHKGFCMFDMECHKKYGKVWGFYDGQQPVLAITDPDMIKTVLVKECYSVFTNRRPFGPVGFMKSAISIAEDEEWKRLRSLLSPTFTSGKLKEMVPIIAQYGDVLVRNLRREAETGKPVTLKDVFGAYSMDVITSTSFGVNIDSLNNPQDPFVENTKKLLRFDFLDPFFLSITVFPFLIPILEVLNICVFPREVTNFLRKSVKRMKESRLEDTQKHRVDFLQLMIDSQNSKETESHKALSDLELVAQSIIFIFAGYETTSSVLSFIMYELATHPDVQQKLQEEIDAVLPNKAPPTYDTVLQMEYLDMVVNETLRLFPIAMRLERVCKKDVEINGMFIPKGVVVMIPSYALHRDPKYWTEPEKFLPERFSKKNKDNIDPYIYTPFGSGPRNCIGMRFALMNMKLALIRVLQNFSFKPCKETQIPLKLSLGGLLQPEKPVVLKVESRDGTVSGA
human IKCa1 channel, sequence (O15554 whole entry): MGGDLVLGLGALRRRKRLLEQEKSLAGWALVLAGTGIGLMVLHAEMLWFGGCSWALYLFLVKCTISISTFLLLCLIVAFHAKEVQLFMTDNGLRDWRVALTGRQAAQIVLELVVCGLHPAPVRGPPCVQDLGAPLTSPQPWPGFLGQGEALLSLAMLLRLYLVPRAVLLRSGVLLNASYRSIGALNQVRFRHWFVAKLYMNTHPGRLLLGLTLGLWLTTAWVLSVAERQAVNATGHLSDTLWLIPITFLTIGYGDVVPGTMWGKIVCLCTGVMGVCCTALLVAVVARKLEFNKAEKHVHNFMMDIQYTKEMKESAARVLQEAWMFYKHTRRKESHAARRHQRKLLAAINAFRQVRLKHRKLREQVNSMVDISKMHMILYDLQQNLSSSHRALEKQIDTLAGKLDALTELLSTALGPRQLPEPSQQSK

| Compound | Kd (human IKCa1 channel) [µM] | melting point [°C] | also measured |
| --- | --- | --- | --- |
| c1ccc(C(Nc2nccs2)(c2ccccc2)c2ccccc2)cc1 |  | 213 |  |
| OC(c1ccccc1)(c1ccccc1)c1ccc(Cl)cc1 [Compound T1, (4-Chlorophenyl)diphenyl methanol] | 0.55 | 82 |  |
| OC(c1ccccc1)(c1ccccc1)c1cccs1 [Compound T9, (2-Thienyl)diphenyl methanol] | 1.5 | 129 |  |
| OC(c1ccccc1)(c1ccccc1)c1cccc(Cl)c1 [Compound T2, (3-Chlorophenyl)diphenyl methanol] | 0.53 | 53 |  |
| NC(=O)NC(c1ccccc1)(c1ccccc1)c1ccccc1Cl |  | 243 |  |
| c1ccc(C(c2ccccc2)(c2ccccc2)N2CCCC2)cc1 [Compound T7, 1-Tritylpyrrolidine] | 30 | 126 |  |
| OC(c1ccccc1)(c1ccc(Cl)cc1)c1ccc(Cl)cc1 [Compound T4, Bis-(4-chlorophenyl)phenyl methanol] |  | 86 | Kd for block of IKCa1 (human IKCa1 channel; [1]): No effect at 1 μM |
| N#CC(c1ccccc1)(c1ccccc1)c1ccc(F)cc1 [Compound T27, 2-(4-Fluorophenyl)2,2-diphenylacetonitrile] | 0.8 | 76 |  |
| c1ccc(C(NCc2ccc(CNC(c3ccccc3)(c3ccccc3)c3ccccc3)cc2)(c2ccccc2)c2ccccc2)cc1 [Compound T23, 1,4-Ditritylaminomethyl benzene] |  | 201 | Kd for block of IKCa1 (human IKCa1 channel; [1]): No effect at 1 μM |
| c1ccc(C(c2ccccc2)(c2ccccc2)n2cccn2)cc1 [Compound T11, 1-Trityl-1H-pyrazole] | 2.5 | 202 |  |
| c1ccc(C(c2ccccc2)(c2ccccc2)n2cccc2)cc1 [Compound T10, 1-Trityl-1H-pyrrole] | 28 | 243 |  |
| NC(=O)NC(c1ccccc1)(c1ccccc1)c1ccccc1 [Compound T24, N-trityl urea] | 8 | 238 |  |
| CCOC(=O)C(C(=O)OCC)C(c1ccccc1)(c1ccccc1)c1ccccc1 [Compound T74] |  |  | Kd (human IKCa1 channel; read-out: Kd for block of IKCa1, hIKCa1 in COS-7 cells, reduction of slope conductance at −80 mV, 1 μM free Ca++ in pipette): 0.6 µM; inhibition at 30 min, 10 μM (CYP3A4): 4% |
| Clc1ccccc1C(c1ccccc1)(c1ccccc1)n1cccc1 |  | 184 |  |
| OC(c1ccccc1)(c1ccccc1)c1ccc(F)cc1 [Compound T12, (4-Fluorophenyl)diphenyl methanol] | 0.7 | 120.5 |  |
| OC(c1ccccc1)(c1ccccc1)c1ccccc1Cl [Compound T3, (2-Chlorophenyl)diphenyl methanol] | 0.52 | 91 | inhibition at 30 min, 10 μM (CYP3A4): -30.5% |

Further lines, with some results ahead:

| Kd (human IKCa1 channel) [µM] | melting point [°C] | Compound | also measured |
| --- | --- | --- | --- |
| 32 | 198 | Clc1ccccc1C(NCCCNC(c1ccccc1)(c1ccccc1)c1ccccc1Cl)(c1ccccc1)c1ccccc1 [Compound T49, N,N-1,3-[(2-Chlorophenyl)diphenylmethyl]-amino propane] |  |
| 30 | 228 | Clc1ccccc1C(NCCNC(c1ccccc1)(c1ccccc1)c1ccccc1Cl)(c1ccccc1)c1ccccc1 [Compound T48, N,N-1,2-[(2-Chlorophenyl)diphenylmethyl]-amino ethane] |  |
| 8 | 222 | NC(=O)NC(c1ccccc1)(c1ccccc1)c1ccc(F)cc1 [Compound T31, N-[(4-Fluorophenyl)diphenylmethyl] urea] |  |
| 1.2 | 215 | CC(=O)NC(c1ccccc1)(c1ccccc1)c1ccccc1F [Compound T76, N-(2-Fluorophenyl)diphenylmethyl acetamide] |  |
| 0.06 | 144 | N#CC(c1ccccc1)(c1ccccc1)c1ccccc1F [Compound T40, 2-(2-Fluorophenyl)2,2-diphenylacetonitrile] | IKCa1 inhibition compared with clotrimazole (human IKCa1 channel): more potent inhibitors of IKCa1 channels than clotrimazole; inhibition at 30 min, 10 μM (CYP3A4): 9% |
| 0.06 |  | N#CC(c1ccccc1)(c1ccccc1)c1ccccc1Cl [Compound T39, 2-(2-Chlorophenyl)2,2-diphenylacetonitrile] | IKCa1 inhibition compared with clotrimazole (human IKCa1 channel): more potent inhibitors of IKCa1 channels than clotrimazole; inhibition at 30 min, 10 μM (CYP3A4): 10% |
| 15 | 228 | NC(=O)NC(c1ccccc1)(c1ccccc1)c1ccc(Cl)cc1 [Compound T29, N-[(4-Chlorophenyl)diphenylmethyl] urea] |  |
| 30 |  | Clc1ccccc1C(Nc1ccncc1)(c1ccccc1)c1ccccc1 [Compound T67, N-[(2-Chlorophenyl)diphenylmethyl]-N-(4-pyridyl)amine] | inhibition at 30 min, 10 μM (CYP3A4): 74% |
| 1.2 |  | CC(=O)NC(c1ccccc1)(c1ccccc1)c1ccccc1Cl [Compound T75, N-(2-chlorophenyl)diphenylmethyl acetamide] | inhibition at 30 min, 10 μM (CYP3A4): -54% |
| 15 |  | Clc1ccccc1C(Nc1nccs1)(c1ccccc1)c1ccccc1 [Compound T66, N-[(2-Chlorophenyl)diphenylmethyl]-N-(1,3-thiazol-2yl)amine] | inhibition at 30 min, 10 μM (CYP3A4): 86.5% |
| 0.7 | 116 | OC(c1ccccc1)(c1ccccc1)c1ccccc1F [Compound T36, (2-Fluorophenyl)diphenyl methanol] |  |
| 9 | 86 | OC(c1ccccc1)(c1cccs1)c1cccs1 [Compound T35, Di-(2-thienyl)phenyl methanol] |  |
| 5 |  | FC(F)(F)c1ccccc1C(c1ccccc1)(c1ccccc1)n1cccn1 [Compound T58, 1-{Diphenyl[2-(trifluoromethyl)-phenyl]methyl}-1H-pyrazole] | inhibition at 30 min, 10 μM (CYP3A4): -26% |
| 1 | 225 | NC(=O)NC(c1ccccc1)(c1ccccc1)c1ccccc1F [Compound T45, N-[(2-Fluorophenyl)diphenylmethyl] urea] |  |
| 1.5 | 185 | CC(=O)NC(c1ccccc1)(c1ccccc1)c1ccccc1C(F)(F)F [Compound T83, N-(2-Trifluoromethylphenyl)diphenylmethyl acetamide] |  |
| 15 |  | O=[N+]([O-])c1ccc(S(=O)(=O)c2cnc(NC(c3ccccc3)(c3ccccc3)c3ccccc3Cl)s2)cc1 [Compound T81, N-{5-[(4-Nitrophenyl)sulfonyl]-1,3-thiazol-2yl}-N[(2-chlorophenyl)-(diphenyl)-methyl]amine] |  |
| 25 |  | FC(F)(F)c1ccn(C(c2ccccc2)(c2ccccc2)c2ccccc2C(F)(F)F)n1 [Compound T59, 1-{Diphenyl[2-(trifluoromethyl)-phenyl]methyl}-3-(trifluoromethyl)-1H-pyrazole] |  |
| 15 |  | FC(F)(F)c1ccccc1C(Nc1ncccn1)(c1ccccc1)c1ccccc1 [Compound T73, N-Diphenyl[2-(trifluoromethyl)phenyl]-methyl-N-(2-pyrimidinyl)amine] |  |
| 11 |  | Clc1ccc(C(Nc2ccncc2)(c2ccccc2)c2ccccc2)cc1 [Compound T70, N-[(4-Chlorophenyl)diphenylmethyl]-N-(4-pyridyl)amine] |  |
